From patent publication US12508280B2, “Formulations for improving gut health” (DSM IP ASSETS B.V., priority 2018, dated 2025) come the findings set out here.

Assay [1] is described as follows: Broiler feeding trial, cecal 1H-NMR metabolomic analysis. The class given is in vivo, chickens. Here is the method: A total of 63 samples have been provided to the Bio-NMR Group of Department of Agricultural and Food Science and Interdepartmental Centre for Industrial Agri-Food Research (CIRI) of University of Bologna, Italy, including 21 cecal samples, collected from the first time point, 21 from the second time point and 21 from the third time were available.
Preliminary analysis were performed on 63 samples subdivided as follows: control samples (A) fed with 10 mg/kg of Vit. B2, treated samples (B) fed with 50 mg/kg of Vit. B2, treated samples (C) fed with 100 mg/kg of Vit. B2. Samples were prepared for nuclear magnetic resonance (NMR) analysis by vortex mixing for 5 minutes stool with 1 mL of deionized water, followed by centrifugation for 10 minutes at 14,000 rpm and 4° C. About […] of supernatant was added to 100 μL of a D2O 1.5 M phosphate buffer solution containing 0.1% TSP (3-(trimethylsilyl)propionic acid-d4), NaN3 2 mM, set at pH 7.40. Before analysis, samples were centrifuged for 10 minutes again and then 590 uL transferred into an NMR tube.
Proton NMR (^1H-NMR) spectra were recorded at 298 K with an AVANCE III spectrometer (Bruker, Milan, Italy) operating at a frequency of 600.13 MHz. The Hydrogen Deuterium Oxide (HOD) residual signal was suppressed by presaturation, whereas broad signals from slowly tumbling molecules were removed by including a Carr-Purcell-Meiboom-Gill filter27 to a free induction decay sequence. The filter was made up by a train of 400 echoes separated by 800 μs, for a total time of 328 ms. Each spectrum was acquired by summing up 256 transients using 32 K data points over a 7211.54-Hz spectrum (for an acquisition time of 2.27 seconds). The recycle delay was set to 8 seconds, keeping into consideration the longitudinal relaxation time of the protons under investigation. Each spectrum was processed with Top Spin 3.0 (Bruker) by using an automatic command apk0.noe, which performs in one shot the baseline and phase correction and by applying a line-broadening factor of 1 Hz. […]

The subject of assay [2] is Pepsin, pancreatin, viscozyme. The assay is described as follows: In vitro enzymatic digestion with exogenous enzymes. The assay is classed as biochemical. How it is done: Erlenmeyer flasks (100 mL total volume) contained 0.5 g of substrate alone or supplemented with the three eubiotics were incubated in duplicates for each treatment, to determine the in vitro enzymatic digestibility following the three-step method of Boisen and Fernandez (1997). The digestibility was determined with: • [1] Pepsin • [2] Pepsin+pancreatin • [3] Pepsin+pancreatin+viscozyme B. With Gastric Contents and Small Intestine Contents
For gas production, results were analyzed for each incubation time as a split-plot design, considering the donor pig as a block, the contents (fresh vs. frozen) as the main plot and the treatment as the subplot. The same design was used to analyze the results obtained from digestive contents (gastric vs. small intestine) as the main plot. In vitro enzymatic results were not statistically analyzed as there were no sources of experimental variability. Differences were considered significant when P<0.05, and a trend for significance was considered when 0.05 ? P<0.10 and, when significant, differences were compared by the Tukey t test at P<0.05.

The subject of assay [3] is caecum content metagenome. The assay is described as follows: Broiler feeding trial, cecal metagenomic analysis (KEGG and SEED functional genes). The class given is in vivo, chickens. To be noted: treated groups (B and C) vs control group (A).
Procedure: The DNA are being extracted from each sample of caecum content using a bead-beating procedure. Briefly, 0.25 g of cecal content are suspended in 1 ml lysis buffer (500 mM NaCl, 50 mM Tris-Cl, pH 8.0, 50 mM EDTA, 4% SDS) with MagNA Lyser Green Beads (Roche, Milan, Italy) and homogenized on the MagNA Lyser (Roche) for 25 sec at 6500 rpm. The samples are then heated at 70° C. for 15 min, followed by centrifugation to separate the DNA from the bacterial cellular debris. This process is repeated with a second 300 μl aliquot of lysis buffer. The samples are then subjected to 10 M v/v ammonium acetate (Sigma, Milan, Italy) precipitation, followed by isopropanol (Sigma) precipitation and a 70% ethanol (Carlo Erba, Milan, Italy) wash and re-suspended in 100 ul 1× Tris-EDTA (Sigma). The samples are then treated with DNase-free RNase (Roche) and incubated overnight at 4° C., before being processed through the QIAmp® DNA Stool Mini Kit (Qiagen, Milan, Italy) according to manufacturer's directions with some modifications. Samples are measured on a BioSpectrometer® (Eppendorf, Milan, Italy) to assess DNA quantity and quality. […]
Filtering and trimming of raw reads were performed using MGRast (MR) (mgrast.org) (Keegan et al., 2016) bioinformatics pipelines. […]
Assay [4] deals with genes involved in Acetyl-CoA fermentation to Butyrate pathway. As to the kind of experiment: Shotgun sequencing functional analysis: butyrate pathway genes (first set). The class given is cell-based, human. The settings on record: 0.2× dose; after 24 h fermentation; vs corresponding control.

`Cc1cc2nc3c(=O)[nH]c(=O)nc-3n(C[C@H](O)[C@H](O)[C@H](O)CO)c2cc1C` [Vitamin B2, riboflavin]: the “cecal propionate (1H-NMR integral area)” value in assay [1] (groups A, B, C, T0, T1, T2) was “A tendency to increase”. In assay [1] (groups A, B, C, T0, T1, T2 (14, 28, 38/42 days)), the “cecal butyrate (1H-NMR integral area)” value is “not affected by both treatment and time”. Besides, in assay [1] (samples C (100 mg/kg Vit. B2) vs others), the “cecal uracil (1H-NMR integral area)” value was “always higher than the others”. For the same molecule, in assay [2], the “substrate digestibility incubated in (P+Pancreatin) and/or (P+P+Viscozyme)” value is “no differences among treatments were observed” and the “substrate digestibility incubated in pepsin-HCl” value is reported as “higher than that of other treatments”. In addition, the “PCA of functional features (6361 features, 63 samples)” value in assay [3] is given as “clear visible separation”.
As to Vitamin E, the “relative abundance of genes involved in Acetyl-CoA fermentation to Butyrate pathway” value in assay [4] was “increase relative abundance”.
